{
  "source": "ChEMBL document CHEMBL1275483",
  "about": "“Staphylococcus aureus cell wall stress stimulon gene-lacZ fusion strains: potential for use in screening for cell wall-active antimicrobials” (2008)",
  "key": {"Staphylococcus aureus [1]": {"system": "Staphylococcus aureus", "test": "Induction of Ppbp2::lacZ gene expression in Staphylococcus aureus SH1000 at 0.3 ug/ml after 0.5 hrs by beta-galactosidase reporter gene assay relative to untreated control", "format": "functional, organism-based"}, "Staphylococcus aureus [2]": {"system": "Staphylococcus aureus", "test": "Induction of PtcaA::lacZ gene expression in Staphylococcus aureus SH1000 at 8 ug/ml after 2 hrs by beta-galactosidase reporter gene assay relative to untreated control", "format": "functional, organism-based"}, "Staphylococcus aureus [3]": {"system": "Staphylococcus aureus", "test": "Antimicrobial activity against beta-lactamase producing Staphylococcus aureus SH1000", "format": "functional"}, "Staphylococcus aureus [4]": {"system": "Staphylococcus aureus", "test": "Induction of PlytR::lacZ gene expression in Staphylococcus aureus SH1000 at 8 ug/ml after 2 hrs by beta-galactosidase reporter gene assay relative to untreated control", "format": "functional, organism-based"}, "Staphylococcus aureus [5]": {"system": "Staphylococcus aureus", "test": "Induction of PsgtB::lacZ gene expression in Staphylococcus aureus SH1000 at 8 ug/ml after 2 hrs by beta-galactosidase reporter gene assay relative to untreated control", "format": "functional, organism-based"}, "Staphylococcus aureus [6]": {"system": "Staphylococcus aureus", "test": "Induction of Ppbp2::lacZ gene expression in Staphylococcus aureus SH1000 at 8 ug/ml after 2 hrs by beta-galactosidase reporter gene assay relative to untreated control", "format": "functional, organism-based"}, "Staphylococcus aureus [7]": {"system": "Staphylococcus aureus", "test": "Induction of PvraSr::lacZ gene expression in Staphylococcus aureus SH1000 at 8 ug/ml after 2 hrs by beta-galactosidase reporter gene assay relative to untreated control", "format": "functional, organism-based"}, "Staphylococcus aureus [8]": {"system": "Staphylococcus aureus", "test": "Induction of PvraSr::lacZ gene expression in Staphylococcus aureus SH1000 at 0.05 ug/ml after 2 hrs by beta-galactosidase reporter gene assay relative to untreated control", "format": "functional"}, "Staphylococcus aureus [9]": {"system": "Staphylococcus aureus", "test": "Induction of PsgtB::lacZ gene expression in Staphylococcus aureus SH1000 at 0.05 ug/ml after 2 hrs by beta-galactosidase reporter gene assay relative to untreated control", "format": "functional"}, "Staphylococcus aureus [10]": {"system": "Staphylococcus aureus", "test": "Induction of PlytR::lacZ gene expression in Staphylococcus aureus SH1000 at 0.05 ug/ml after 2 hrs by beta-galactosidase reporter gene assay relative to untreated control", "format": "functional"}, "Staphylococcus aureus [11]": {"system": "Staphylococcus aureus", "test": "Induction of Ppbp2::lacZ gene expression in Staphylococcus aureus SH1000 at 0.05 ug/ml after 2 hrs by beta-galactosidase reporter gene assay relative to untreated control", "format": "functional"}, "Staphylococcus aureus [12]": {"system": "Staphylococcus aureus", "test": "Induction of PtcaA::lacZ gene expression in Staphylococcus aureus SH1000 at 0.05 ug/ml after 2 hrs by beta-galactosidase reporter gene assay relative to untreated control", "format": "functional"}, "Staphylococcus aureus [13]": {"system": "Staphylococcus aureus", "test": "Induction of PsgtB::lacZ gene expression in Staphylococcus aureus SH1000 at 3 ug/ml after 2 hrs by beta-galactosidase reporter gene assay relative to untreated control", "format": "functional"}, "Staphylococcus aureus [14]": {"system": "Staphylococcus aureus", "test": "Induction of PvraSr::lacZ gene expression in Staphylococcus aureus SH1000 at 3 ug/ml after 2 hrs by beta-galactosidase reporter gene assay relative to untreated control", "format": "functional"}, "Staphylococcus aureus [15]": {"system": "Staphylococcus aureus", "test": "Induction of Ppbp2::lacZ gene expression in Staphylococcus aureus SH1000 at 3 ug/ml after 2 hrs by beta-galactosidase reporter gene assay relative to untreated control", "format": "functional"}, "Staphylococcus aureus [16]": {"system": "Staphylococcus aureus", "test": "Induction of PlytR::lacZ gene expression in Staphylococcus aureus SH1000 at 3 ug/ml after 2 hrs by beta-galactosidase reporter gene assay relative to untreated control", "format": "functional"}, "Staphylococcus aureus [17]": {"system": "Staphylococcus aureus", "test": "Induction of PtcaA::lacZ gene expression in Staphylococcus aureus SH1000 at 3 ug/ml after 2 hrs by beta-galactosidase reporter gene assay relative to untreated control", "format": "functional"}, "Staphylococcus aureus [18]": {"system": "Staphylococcus aureus", "test": "Induction of Ppbp2::lacZ gene expression in Staphylococcus aureus SH1000 at 2 ug/ml after 2 hrs by beta-galactosidase reporter gene assay relative to untreated control", "format": "functional"}, "Staphylococcus aureus [19]": {"system": "Staphylococcus aureus", "test": "Induction of PtcaA::lacZ gene expression in Staphylococcus aureus SH1000 at 2 ug/ml after 2 hrs by beta-galactosidase reporter gene assay relative to untreated control", "format": "functional"}, "Staphylococcus aureus [20]": {"system": "Staphylococcus aureus", "test": "Induction of PlytR::lacZ gene expression in Staphylococcus aureus SH1000 at 2 ug/ml after 2 hrs by beta-galactosidase reporter gene assay relative to untreated control", "format": "functional"}, "Staphylococcus aureus [21]": {"system": "Staphylococcus aureus", "test": "Induction of PvraSr::lacZ gene expression in Staphylococcus aureus SH1000 at 2 ug/ml after 2 hrs by beta-galactosidase reporter gene assay relative to untreated control", "format": "functional"}, "Staphylococcus aureus [22]": {"system": "Staphylococcus aureus", "test": "Induction of PsgtB::lacZ gene expression in Staphylococcus aureus SH1000 at 2 ug/ml after 2 hrs by beta-galactosidase reporter gene assay relative to untreated control", "format": "functional"}, "Staphylococcus aureus [23]": {"system": "Staphylococcus aureus", "test": "Induction of PtcaA::lacZ gene expression in Staphylococcus aureus SH1000 at 1 ug/ml after 2 hrs by beta-galactosidase reporter gene assay relative to untreated control", "format": "functional"}, "Staphylococcus aureus [24]": {"system": "Staphylococcus aureus", "test": "Induction of PsgtB::lacZ gene expression in Staphylococcus aureus SH1000 at 1 ug/ml after 2 hrs by beta-galactosidase reporter gene assay relative to untreated control", "format": "functional"}, "Staphylococcus aureus [25]": {"system": "Staphylococcus aureus", "test": "Induction of PlytR::lacZ gene expression in Staphylococcus aureus SH1000 at 1 ug/ml after 2 hrs by beta-galactosidase reporter gene assay relative to untreated control", "format": "functional"}, "Staphylococcus aureus [26]": {"system": "Staphylococcus aureus", "test": "Induction of Ppbp2::lacZ gene expression in Staphylococcus aureus SH1000 at 1 ug/ml after 2 hrs by beta-galactosidase reporter gene assay relative to untreated control", "format": "functional"}, "Staphylococcus aureus [27]": {"system": "Staphylococcus aureus", "test": "Induction of PvraSr::lacZ gene expression in Staphylococcus aureus SH1000 at 1 ug/ml after 2 hrs by beta-galactosidase reporter gene assay relative to untreated control", "format": "functional"}},
  "note": "Calls of active or inactive are those of the source. The calls are words filed in the database; no cut-off is given here.",
  "data": [
    {"smiles": "Cc1onc(-c2ccccc2)c1C(=O)N[C@@H]1C(=O)N2[C@@H]1SC(C)(C)[C@@H]2C(=O)O", "note": "[OXACILLIN]", "values": [
      {"measurement": "Activity", "setting": "Staphylococcus aureus [1]", "result": "Active"},
      {"measurement": "Activity", "setting": "Staphylococcus aureus [2]", "result": "Active"},
      {"measurement": "MIC", "setting": "Staphylococcus aureus [3]", "result": 1, "unit": "µg/mL"},
      {"measurement": "Activity", "setting": "Staphylococcus aureus [4]", "result": "Active"},
      {"measurement": "Activity", "setting": "Staphylococcus aureus [5]", "result": "Active"},
      {"measurement": "Activity", "setting": "Staphylococcus aureus [6]", "result": "Active"},
      {"measurement": "Activity", "setting": "Staphylococcus aureus [7]", "result": "Active"}
    ]},
    {"smiles": "CO[C@H]1/C=C/O[C@@]2(C)Oc3c(C)c(O)c4c(O)c(c(/C=N/N5CCN(C)CC5)c(O)c4c3C2=O)NC(=O)/C(C)=C\\C=C\\[C@H](C)[C@H](O)[C@@H](C)[C@@H](O)[C@@H](C)[C@H](OC(C)=O)[C@@H]1C", "note": "[RIFAMPIN]", "values": [
      {"measurement": "fold change (FC)", "setting": "Staphylococcus aureus [8]", "result": 1.2},
      {"measurement": "fold change (FC)", "setting": "Staphylococcus aureus [9]", "result": 1.19},
      {"measurement": "MIC", "setting": "Staphylococcus aureus [3]", "result": 0.05, "unit": "µg/mL"},
      {"measurement": "fold change (FC)", "setting": "Staphylococcus aureus [10]", "result": 0.98},
      {"measurement": "fold change (FC)", "setting": "Staphylococcus aureus [11]", "result": 1.9},
      {"measurement": "fold change (FC)", "setting": "Staphylococcus aureus [12]", "result": 0.99}
    ]},
    {"smiles": "CN[C@@H]1[C@H](O[C@H]2[C@H](O[C@H]3[C@H](O)[C@@H](O)[C@H](N=C(N)N)[C@@H](O)[C@@H]3N=C(N)N)O[C@@H](C)[C@]2(O)C=O)O[C@@H](CO)[C@H](O)[C@H]1O", "note": "[STREPTOMYCIN]", "values": [
      {"measurement": "fold change (FC)", "setting": "Staphylococcus aureus [13]", "result": 0.41},
      {"measurement": "MIC", "setting": "Staphylococcus aureus [3]", "result": 1.5, "unit": "µg/mL"},
      {"measurement": "fold change (FC)", "setting": "Staphylococcus aureus [14]", "result": 0.96},
      {"measurement": "fold change (FC)", "setting": "Staphylococcus aureus [15]", "result": 0.3},
      {"measurement": "fold change (FC)", "setting": "Staphylococcus aureus [16]", "result": 0.7},
      {"measurement": "fold change (FC)", "setting": "Staphylococcus aureus [17]", "result": 0.79}
    ]},
    {"smiles": "CN(C)[C@@H]1C(O)=C(C(N)=O)C(=O)[C@@]2(O)C(O)=C3C(=O)c4c(O)cccc4[C@@](C)(O)[C@H]3C[C@@H]12", "note": "[TETRACYCLINE]", "values": [
      {"measurement": "fold change (FC)", "setting": "Staphylococcus aureus [18]", "result": 0.52},
      {"measurement": "MIC", "setting": "Staphylococcus aureus [3]", "result": 0.5, "unit": "µg/mL"},
      {"measurement": "fold change (FC)", "setting": "Staphylococcus aureus [19]", "result": 0.53},
      {"measurement": "fold change (FC)", "setting": "Staphylococcus aureus [20]", "result": 0.5},
      {"measurement": "fold change (FC)", "setting": "Staphylococcus aureus [21]", "result": 0.52},
      {"measurement": "fold change (FC)", "setting": "Staphylococcus aureus [22]", "result": 0.4}
    ]},
    {"smiles": "COc1cc(Cc2cnc(N)nc2N)cc(OC)c1OC", "note": "[TRIMETHOPRIM]", "values": [
      {"measurement": "fold change (FC)", "setting": "Staphylococcus aureus [23]", "result": 1.24},
      {"measurement": "fold change (FC)", "setting": "Staphylococcus aureus [24]", "result": 1.19},
      {"measurement": "fold change (FC)", "setting": "Staphylococcus aureus [25]", "result": 0.92},
      {"measurement": "fold change (FC)", "setting": "Staphylococcus aureus [26]", "result": 0.88},
      {"measurement": "fold change (FC)", "setting": "Staphylococcus aureus [27]", "result": 0.9}
    ]}
  ]
}
